In the assay the test system is P388 leukemia ip, CD2F1 mice, survival T/C. In words: NCI In Vivo Anticancer Drug Screen. Data for tumor model P388 Leukemia (intraperitoneal) in CD2F1 (CDF1) mice. The following applies: endpoint: median survival time, higher = longer survival. Put shortly:
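Mice carrying the transplanted tumor received test compound or vehicle. Survival was recorded in each group, and the value is the treated-group measurement divided by that of the vehicle-treated control group.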

[1] abbreviates: dose: 50.0 mg/kg/injection, schedule: Q01DX009 (ip), vehicle: suspension in saline.
Setting [2] is: dose: 100.0 mg/kg/injection, schedule: Q01DX009 (ip), vehicle: suspension in saline.
The mark [3] stands for this setting: dose: 200.0 mg/kg/injection, schedule: Q01DX009 (ip), vehicle: suspension in saline.
Setting [4] is: dose: 12.5 mg/kg/injection, schedule: Q01DX009 (ip), vehicle: Klucel (hydroxypropylcellulose) (HPC).
Where [5] appears, read: dose: 25.0 mg/kg/injection, schedule: Q01DX009 (ip), vehicle: Klucel (hydroxypropylcellulose) (HPC).
The mark [6] stands for this setting: dose: 50.0 mg/kg/injection, schedule: Q01DX005 (ip), vehicle: saline with Tween-80.
The mark [7] stands for this setting: dose: 100.0 mg/kg/injection, schedule: Q01DX005 (ip), vehicle: saline with Tween-80.
[8] abbreviates: dose: 200.0 mg/kg/injection, schedule: Q01DX005 (ip), vehicle: saline with Tween-80.
Where [9] appears, read: dose: 60.0 mg/kg/injection, schedule: Q01DX005 (ip), vehicle: saline with Tween-80.
Where [10] appears, read: dose: 120.0 mg/kg/injection, schedule: Q01DX005 (ip), vehicle: saline with Tween-80.
The mark [11] stands for this setting: dose: 240.0 mg/kg/injection, schedule: Q01DX005 (ip), vehicle: saline with Tween-80.
Where [12] appears, read: dose: 50.0 mg/kg/injection, schedule: Q01DX005 (ip), vehicle: Klucel (hydroxypropylcellulose) (HPC).
[13] abbreviates: dose: 100.0 mg/kg/injection, schedule: Q01DX005 (ip), vehicle: Klucel (hydroxypropylcellulose) (HPC).
[14] abbreviates: dose: 200.0 mg/kg/injection, schedule: Q01DX005 (ip), vehicle: Klucel (hydroxypropylcellulose) (HPC).
[15] abbreviates: dose: 25.0 mg/kg/injection, schedule: Q01DX009 (ip), vehicle: saline.
The mark [16] stands for this setting: dose: 50.0 mg/kg/injection, schedule: Q01DX009 (ip), vehicle: saline.
The mark [17] stands for this setting: dose: 200.0 mg/kg/injection, schedule: Q01DX009 (ip), vehicle: saline.
Setting [18] is: dose: 50.0 mg/kg/injection, schedule: Q01DX005 (ip), vehicle: saline.
Where [19] appears, read: dose: 100.0 mg/kg/injection, schedule: Q01DX005 (ip), vehicle: saline.

“And” between values parts separate entries of the source, which are not always exact repeats. Equal entries are not always repeated. Toxic doses and inconclusive results are not listed.

For the compound `CC1(C)CC(OC(=O)CCC(=O)OC2CC(C)(C)N(O)C(C)(C)C2)CC(C)(C)N1O`, the T/C under setting [1] was 100 % of control, the T/C under setting [2] was 100 % of control and the T/C under setting [3] was 96 % of control.
Turning to `CC[N+]1(CC)c2ccccc2CC1C` (configuration not stated), the T/C by setting is: (dose: 6.25 mg/kg/injection, schedule: Q01DX001 (ip), vehicle: saline) 97 % of control; (dose: 12.5 mg/kg/injection, schedule: Q01DX001 (ip), vehicle: saline) 101 % of control; (dose: 25.0 mg/kg/injection, schedule: Q01DX001 (ip), vehicle: saline) 104 % of control.
In the case of `CCCC(=O)Nc1ccc([N+](=O)[O-])cc1OC`, the T/C reads like this: (dose: 100.0 mg/kg/injection, schedule: Q04DX003 (ip), vehicle: saline with Tween-80) 88 % of control; (dose: 200.0 mg/kg/injection, schedule: Q04DX003 (ip), vehicle: saline with Tween-80) 100 % of control; (dose: 400.0 mg/kg/injection, schedule: Q04DX003 (ip), vehicle: saline with Tween-80) 100 % of control.
Turning to `CCN(Cc1ccc(Cl)c(Cl)c1)c1ccc2nc(N)nc(N)c2c1C`, the T/C reads like this: (dose: 6.25 mg/kg/injection, schedule: Q01DX009 (ip), vehicle: Klucel (hydroxypropylcellulose) (HPC)) 121 % of control; under setting [4], 116 % of control; (dose: 12.5 mg/kg/injection, schedule: Q04DX003 (ip), vehicle: water) 116 % of control and 91 % of control; under setting [5], 114 % of control; (dose: 25.0 mg/kg/injection, schedule: Q04DX003 (ip), vehicle: water) 114 % of control and 122 % of control; (dose: 50.0 mg/kg/injection, schedule: Q04DX003 (ip), vehicle: water) 155 % of control. The T/C (dose: 100.0 mg/kg/injection, schedule: Q04DX003 (ip), vehicle: water) is 117 % of control and 90 % of control.
Turning to `C[Si](C)(C)O[C@@H]1CCCC1NCC#N` (some centres not stated), the T/C was 101 % of control under setting [6], 101 % of control under setting [7] and 92 % of control under setting [8].
For `O=c1[nH]nc(NC2Nc3ccccc3N2)c2ccccc12`, the T/C by setting is: under setting [9], 97 % of control; under setting [10], 96 % of control; under setting [11], 96 % of control.
As for `O=c1c2ccccc2cc2n1CCN2`, the T/C was 96 % of control under setting [12], 112 % of control under setting [13] and 107 % of control under setting [14].
Take `COC(F)C(C)=O` (configuration not stated): the T/C was 103 % of control (dose: 100.0 mg/kg/injection, schedule: Q01DX001 (ip), vehicle: other); 101 % of control (dose: 200.0 mg/kg/injection, schedule: Q01DX001 (ip), vehicle: other); 112 % of control (dose: 400.0 mg/kg/injection, schedule: Q01DX001 (ip), vehicle: other).
For `CCOC(=O)c1cnc2cc3c(cc2c1Nc1ccccc1)OCO3`, the T/C (dose: 60.0 mg/kg/injection, schedule: Q01DX005 (ip), vehicle: Klucel (hydroxypropylcellulose) (HPC)) was 94 % of control; the T/C (dose: 120.0 mg/kg/injection, schedule: Q01DX005 (ip), vehicle: Klucel (hydroxypropylcellulose) (HPC)) was 99 % of control; the T/C (dose: 240.0 mg/kg/injection, schedule: Q01DX005 (ip), vehicle: Klucel (hydroxypropylcellulose) (HPC)) is 95 % of control.
For `COC(=O)/C(=C\SC(C)=O)NC(C)=O`, the T/C by setting is: (dose: 100.0 mg/kg/injection, schedule: Q04DX002 (ip), vehicle: saline with Tween-80) 107 % of control; (dose: 200.0 mg/kg/injection, schedule: Q04DX002 (ip), vehicle: saline with Tween-80) 105 % of control; (dose: 400.0 mg/kg/injection, schedule: Q04DX002 (ip), vehicle: saline with Tween-80) 117 % of control.
With `CCC(C)C(C)CNC12CN3CN(CN(C3)C1)C2` (configuration not stated), the T/C is, setting by setting: (dose: 50.0 mg/kg/injection, schedule: Q01DX001 (ip), vehicle: saline) 103 % of control; (dose: 100.0 mg/kg/injection, schedule: Q01DX001 (ip), vehicle: saline) 104 % of control; (dose: 200.0 mg/kg/injection, schedule: Q01DX001 (ip), vehicle: saline) 108 % of control.
With `O=C(O)c1c(Br)c(Br)c(Br)c(Br)c1-c1c2ccc(=O)cc-2oc2cc(O)ccc12`, the T/C is, setting by setting: under setting [9], 101 % of control; under setting [10], 105 % of control; under setting [11], 101 % of control.
Take `Cc1ccc(NCCNCCO)c2c1C(=O)c1ccccc1C2=O`: the T/C is 100 % of control and 87 % of control under setting [15]; 99 % of control and 89 % of control under setting [16]; 116 % of control under setting [1]; 101 % of control and 90 % of control (dose: 100.0 mg/kg/injection, schedule: Q01DX009 (ip), vehicle: saline); 122 % of control under setting [2]; 87 % of control and 95 % of control under setting [17]. Moreover, the T/C under setting [3] is 151 % of control.
`O=C(NO)C(O)C(O)C(O)C(O)CO` (configuration not stated): the T/C reads like this: (dose: 12.5 mg/kg/injection, schedule: Q01DX009 (ip), vehicle: saline) 93 % of control; under setting [15], 91 % of control; under setting [16], 98 % of control and 97 % of control; under setting [17], 86 % of control.
With `CCOC(=O)c1ccnc2ccc(OCCN(CC)CC)cc12`, the T/C was 96 % of control under setting [18]; 100 % of control under setting [19]; 101 % of control (dose: 200.0 mg/kg/injection, schedule: Q01DX005 (ip), vehicle: saline).
On to `COc1ccc(C(CCOS(=O)(=O)c2ccc(Br)cc2)(c2ccc(OC)cc2)c2ccc(OC)cc2)cc1`, for which the T/C under setting [9] is 93 % of control, the T/C under setting [10] is 93 % of control and the T/C under setting [11] is 87 % of control.
Regarding `OC1(Cc2ccc(F)cc2)CCCCCC1`, the T/C under setting [12] is 102 % of control, the T/C under setting [13] is 105 % of control and the T/C under setting [14] is 103 % of control.
On to `CC(C)NC(=O)OCc1c(COC(=O)NC(C)C)c(-c2ccc(Cl)c(Cl)c2)n2c1SCC2`, for which the T/C is, setting by setting: (dose: 25.0 mg/kg/injection, schedule: Q01DX005 (ip), vehicle: saline with Tween-80) 105 % of control; under setting [6], 115 % of control; under setting [7], 116 % of control and 121 % of control; under setting [8], 117 % of control and 123 % of control; (dose: 400.0 mg/kg/injection, schedule: Q01DX005 (ip), vehicle: saline with Tween-80) 122 % of control.
For the compound `CCC1OCN2CCCCC12` (configuration not stated), the T/C was 100 % of control and 105 % of control (dose: 12.5 mg/kg/injection, schedule: Q01DX005 (ip), vehicle: saline); 107 % of control and 108 % of control (dose: 25.0 mg/kg/injection, schedule: Q01DX005 (ip), vehicle: saline); 105 % of control and 107 % of control and 108 % of control under setting [18]; 108 % of control and 110 % of control under setting [19].
Take `ClCCCCOCBr`: the T/C runs as follows: (dose: 60.0 mg/kg/injection, schedule: Q01DX005 (ip), vehicle: saline) 93 % of control; (dose: 240.0 mg/kg/injection, schedule: Q01DX005 (ip), vehicle: saline) 87 % of control.
`O=C1CCC2CC1CCC2=O`: the T/C was 111 % of control under setting [4]; 102 % of control under setting [5]; 109 % of control (dose: 50.0 mg/kg/injection, schedule: Q01DX009 (ip), vehicle: Klucel (hydroxypropylcellulose) (HPC)); 111 % of control (dose: 100.0 mg/kg/injection, schedule: Q01DX009 (ip), vehicle: Klucel (hydroxypropylcellulose) (HPC)).
As for `CC1=NCCc2cc3c(cc21)OCO3`, the T/C is 99 % of control (dose: 25.0 mg/kg/injection, schedule: Q01DX001 (ip), vehicle: saline + alcohol) and 97 % of control (dose: 50.0 mg/kg/injection, schedule: Q01DX001 (ip), vehicle: saline + alcohol).
Turning to `CC1(C)COC2(C)N(c3ccccc3)C(=O)ON12` (configuration not stated), the T/C is 100 % of control under setting [12], 100 % of control under setting [13] and 97 % of control under setting [14].
`O=C1c2cccc3c2C2(O)c4c1cccc4C(=O)c1cccc(c12)C3=O`: the T/C is 100 % of control (dose: 50.0 mg/kg/injection, schedule: Q01DX009 (ip), vehicle: saline with Tween-80) and 90 % of control (dose: 100.0 mg/kg/injection, schedule: Q01DX009 (ip), vehicle: saline with Tween-80).

Source of the values: PubChem BioAssay AID330 (DTP/NCI, 2004).
